Measured values: publication PMC10458971, “Chemical Constituents with Anti-Lipid Droplet Accumulation and Anti-Inflammatory Activity from Elaeagnus glabra” (Plants, 2023)
“Also recorded” adds a separate entry of the source. Read-outs that look alike come from different tables or passages of the source. Blank lines part the entries; values can stand above or below the compound they belong to.

What was measured:
Format in all cases: cell-based
[1] = test system: fMLP/CB-induced human neutrophils; test: Superoxide anion generation in fMLP/CB-induced human neutrophils; conditions: for IC50: fMLP/CB-induced human neutrophils, mean ± S.E.M. (n = 3–4); for Inhibitory activity toward superoxide anion generation or elastase release (preliminary screening, Inh%): 10 μM, Figure 6
Description: (§1) NAFLD is accompanied by inflammation. In the NASH stage, the liver is inflamed. As the NAFLD progresses, persistent inflammation causes scar tissue around the liver; this is called the fibrosis stage. After years of inflammation, liver damage occurs and becomes cirrhosis. To explore the potential of compounds for managing inflammation, eight compounds were preliminarily evaluated for their effects on neutrophil pro-inflammatory responses by suppressing fMLP/CB-induced superoxide anion generation and elastase release (Figure 6 and Table 4). […] These two compounds were further evaluated for their anti-inflammatory activity IC50 values (Table 4).
(§2) Neutrophils were collected from healthy adults aged 20–35 and isolated using Ficoll-Paque density separation. The study was approved by Chang Gung Memorial Hospital’s Institutional Review Board (IRB No. 201902217A3) following the Declaration of Helsinki guidelines. The methods for testing the effects of isolates on superoxide anion generation and elastase release in neutrophils were based on studies published by Professor Tsong-Long Hwang. Ferricytochrome c (0.6 mg/mL) was used to measure superoxide anion. Elastase substrate (methoxysuccinyl-Ala-Ala-Pro-Val-p-nitroanilide, 100 µM; Merck) was employed to detect the elastase release. The elastase level was detected using a spectrophotometer at OD 405 nm. A PI3K inhibitor, namely, LY29002, was used as a positive control in the neutrophil assays. All assays were repeated at least three times. Results are presented as the mean ± standard error of the mean (S.E.M.). Student′s t-test was used to compare the test isolates with a DMSO (0.1%) control. A probability of less than 0.05 was considered significant.

[2] = test system: fMLP/CB-induced human neutrophils; test: Elastase release in fMLP/CB-induced human neutrophils; conditions: mean ± S.E.M. (n = 3–4)
Description: as §1, §2

AML12 cell line [3] = test: LD assay: anti-lipid droplet accumulation in oleic-acid-treated AML12 cells (BODIPY 493/503)
Method: (§3) In this study, twelve compounds present in sufficient amounts (9, 11, 15, 16, 18–20, 22, 25, 30, 31, and 37) were evaluated for anti-LD accumulation activity (Table 3). To assess the anti-LD formation activity, the average LD counts/cell of bovine serum albumin (BSA)-conjugated oleic acid (OA) + drug vehicle (DMSO)-treated wells (hereinafter referred to as OA) were used as the standard for 100% fat loading, and triacsin C (TC) was used as the reference control. […] In Figure 5A, the blue pseudocolor indicates the nuclei area, and the green ones depict the LD area.
Figure 5 Effect of methyl pheophorbide a (37) on LD accumulation. (A) Representative images of the anti-LD formation activity of methyl pheophorbide a (37). (B) Quantification results of the LD assay and cell viability. AML12 cells were treated with BSA or OA (125 µM) with 20 µM methyl pheophorbide a (37) for 24 h. AML12 cells were used as a cell model for lipid accumulation—they were treated with 125 μM oleic acid (OA) for 24 h. Nuclei and LD were stained with Hoechst 33342 (blue) and BODIPY® 493/503 (green), respectively. The asterisk indicates a significant difference from the solvent control cells (*** p < 0.001, one-way ANOVA). TEXT PRINTED IN THE PICTURE: (B) BSA: Normalized LD Count (%): 17.3% *** | (B) OA: Normalized LD Count (%): 100.0% | (B) OA + 37: Normalized LD Count (%): 0.3% ***
(§4) Cells were cultured as described previously. The medium for AML12 (BCRC 60326; Bioresources Collection and Research Center (BCRC), Hsinchu, Taiwan) was a 1:1 mixture of DMEM and Ham’s F12 medium with 10% FBS and 1× ITS-A supplement (Thermo Fisher Scientific).
The LD accumulation of the test compounds was evaluated according to the studies published by co-author Professor Chia-Hung Yen. The LD accumulation was detected by BODIPY® 493/503 dye (Thermo Fisher Scientific). LD accumulation was achieved by treating cells with OA conjugated to BSA. All data were analyzed with GraphPad Prism 6.01 software (La Jolla, CA, USA). One-way analysis of variance (ANOVA) followed by Tukey’s comparison test was used to compare differences between multiple groups. A p-value < 0.05 was considered statistically significant.

[4] = Cell viability (nucleus counts, DAPI image) in AML12 cells; conditions: mouse
Method: as §3, §4

AML12 cell line [5] = test: as above; conditions: AML12; for Cell Viability (%, 24h, DAPI Image): compound 100 μg/mL, nucleus counts of DMSO = 100%
Method: as §3, §4

[6] = Mus musculus, compound 100 μg/mL, AML12, average LD counts/cell of oleic-acid-treated group = 100% fat-loading, read-out: Relative Lipid Droplet Count (%)
[7] = AML12 cells, compound 100 μg/mL, 24 h, AML12, nucleus counts of DMSO = 100%, read-out: Cell Viability (%, 24h, DAPI Image)
[8] = compound 100 μg/mL, AML12, average LD counts/cell of oleic-acid-treated group = 100% fat-loading
[9] = Mus musculus, AML12, read-out: Relative Lipid Droplet Count (%)
[10] = compound 100 μg/mL, 24 h, AML12, nucleus counts of DMSO = 100%, read-out: Cell Viability (%, 24h, DAPI Image)

- IC50 [1]: > 10 µM
- IC50 [2]: > 10 µM
Compound: C=C(C)C1CCC2(C(=O)O)CCC3(C)C(CCC4C5(C)CCC(OC(=O)C=Cc6ccc(O)c(O)c6)C(C)(C)C5CCC43C)C12 (single isomer, unassigned; (+)) [(+)-3β-O-trans-caffeoyl betulinic acid]

- IC50 [1]: > 10 µM
- IC50 [2]: > 10 µM
Compound: CC1(C)CCC23CCC4(C)C5(C)CCC6C(C)(CO)C(O)C(O)CC6(C)C5C5OC5C4(OC2=O)C3C1 (stereo not drawn) [2α,3β,23-trihydroxy-11α,12α-epoxyolean-28,13β-olide]

- IC50 [1]: 3.01 ± 0.58 µM
- IC50 [2]: > 10 µM
Compound: CC1(C)CC[C@]2(C(=O)O)CC[C@]3(C)C(=CCC4[C@@]5(C)CC[C@H](OC(=O)/C=C/c6ccc(O)c(O)c6)C(C)(C)C5CC[C@]43C)C2C1 (stereo partly shown) [3-O-(E)-caffeoyloleanolic acid (13), 3-O-(E)-caffeoyloleanolic acid]
- Inhibitory activity toward superoxide anion generation or elastase release (preliminary screening, Inh%) [1]: significant inhibitory activity

- IC50 ([1]; Homo sapiens, Neutrophil): > 10 µM
- IC50 ([2]; Homo sapiens, Neutrophil): > 10 µM
Compound: O=C(O)c1ccc(CCO)cc1 [4-(2-hydroxyethyl)benzoic acid (26), 4-(2-hydroxyethyl)benzoic acid]

Compound: Oc1cc(O)c2c(c1)O[C@@H](c1ccc(O)c(O)c1)[C@H](O)C2 [(−)-catechin (16), (−)-catechin]
- activity at 100 µg/mL (AML12 cell line [3]; [6]): 111 ± 5.1%
- viability at 24 h, 100 μg/mL [4, 7]: 154 ± 12.3%

Compound: Oc1cc(O)c2c(c1)O[C@H](c1ccc(O)c(O)c1)[C@H](O)C2 [(−)-epicatechin (18), (−)-epicatechin]
- activity at 100 µg/mL (AML12 cell line [3]; [6]): 116 ± 6%
- viability at 24 h, 100 μg/mL [4, 7]: 146 ± 10.3%

Compound: Oc1cc(O)c2c(c1)O[C@H](c1cc(O)c(O)c(O)c1)[C@H](O)C2 [(−)-epigallocatechin (19), (−)-epigallocatechin]
- Relative Lipid Droplet Count (%) (AML12 cell line [3]; [8]): 93.5 ± 6.6%

Compound: Oc1cc(O)c2c(c1)O[C@@H](c1cc(O)c(O)c(O)c1)[C@H](O)C2 [(−)-gallocatechin (20), (−)-gallocatechin]
- activity at 100 µg/mL (AML12 cell line [3]; [6]): 117 ± 7.8%
- viability at 24 h, 100 μg/mL [4]: 154 ± 6.2%

- IC50 ([1]; Homo sapiens, Neutrophil): 1.29 ± 0.52 µM
- IC50 ([2]; Homo sapiens, Neutrophil): 2.61 ± 0.72 µM
Compound: O=c1cc(N2CCOCC2)oc2c(-c3ccccc3)cccc12 [LY294002, reference compound]

Compound: CCC/C=C/C/C=C/C=C/C=N/NN=O [TC, Triacsin C, reference compound]
- activity at 0.008 µM (AML12 cell line [3]; [9]): 60.6 ± 0.2%
- viability at 24 h, 0.008 µM ([4]; positive control, drug concentration 8 nM, 24 h, AML12, DMSO = 100%): 126 ± 6.1%

- IC50 [1]: > 10 µM
- IC50 [2]: > 10 µM
Compound: CC1(C)CC[C@]2(C(=O)O)CC[C@]3(C)C(=C[C@@H](O)[C@@H]4[C@@]5(C)C[C@@H](O)[C@H](O)[C@@](C)(CO)[C@@H]5CC[C@]43C)[C@@H]2C1 [cleistocalyxic acid E (7), cleistocalyxic acid E]

- IC50 ([1]; Homo sapiens, Neutrophil): > 10 µM
- IC50 ([2]; Homo sapiens, Neutrophil): > 10 µM
Compound: CC1(C)CC[C@@]23CC[C@]4(C)[C@@](OC2=O)([C@@H]3C1)[C@H]1O[C@H]1[C@@H]1[C@@]2(C)CC[C@H](OC(=O)/C=C/c3ccc(O)c(O)c3)C(C)(C)[C@@H]2CC[C@]14C [elaeagterpene A (2), (3S,4aR,6aR,6bS,8aS,12aR,12bS,12cS,13aS,13bR,13cS)-4,4,6a,6b,11,11,13c-Heptamethyl-15-oxooctadecahydro-1H,9H-12b,8a-(epoxymethano)piceno [13,14-b]oxiren-3-yl(E)-3-(3,4-dihydroxyphenyl)acrylate]

Compound: C=C(C)[C@@H]1CC[C@]2(C)CC[C@]3(C)[C@H](CC[C@@H]4[C@@]5(C)CC[C@H](O)C(C)(C)[C@@H]5CC[C@]43C)[C@@H]12 [lupeol (9), lupeol]
- activity at 100 µg/mL (AML12 cell line [3]; [6]): 95.2 ± 1.8%
- viability at 24 h, 100 μg/mL [4, 7]: 114 ± 3.6%

- IC50 ([2]; Homo sapiens, Neutrophil): < 3 µM
- IC50 [2]: 2.35 ± 0.12 µM
Compound: C=Cc1c(C)c2cc3nc(c4c5[nH]c(cc6nc(cc1[nH]2)C(C)=C6CC)c(C)c5C(=O)[C@@H]4C(=O)OC)[C@@H](CCC(=O)OC)[C@@H]3C [methyl pheophorbide a (37), methyl pheophorbide a]
- LD content reduction (AML12 cell line [3]; 20 μM, AML12): more than 90%
- Normalized LD Count (%) / normalized LD content (AML12 cell line [3]; 20 μM, AML12, OA 125 μM, 24 h, OA = 100%): 0.3%
- activity at 100 µg/mL (AML12 cell line [3]; [6]): 0.3 ± 0.1%
- viability at 24 h, 100 μg/mL [4, 7]: 99.5 ± 5.4%
- Cytotoxicity (AML12 cell line [5]; 20 μM): without significant cytotoxic effects; also recorded: without cytotoxicity
- Cell Viability (%, 24h, DAPI Image) (AML12 cell line [5]): did not affect the cell viability
- Inhibitory activity toward superoxide anion generation or elastase release (preliminary screening, Inh%) [1]: significant inhibitory activity

Compound: COc1cc(C=O)cc(OC)c1O [syringaldehyde (25), syringaldehyde]
- activity at 100 µg/mL (AML12 cell line [3]; [9]): 102 ± 5%
- viability at 24 h, 100 μg/mL [4, 10]: 138 ± 5.7%
- IC50 ([1]; Neutrophil): > 10 µM
- IC50 ([2]; Neutrophil): > 10 µM

Compound: C[C@H]1[C@H](C)CC[C@]2(C(=O)O)CC[C@]3(C)C(=CC[C@@H]4[C@@]5(C)CC[C@H](O)C(C)(C)[C@@H]5CC[C@]43C)[C@H]12 [ursolic acid (11), ursolic acid]
- activity at 100 µg/mL (AML12 cell line [3]; [6]): 99.2 ± 4%
- viability at 24 h, 100 μg/mL [4, 7]: 146 ± 4.5%

Compound: CC[C@H](CC[C@@H](C)[C@H]1CC[C@H]2[C@@H]3CC=C4C[C@@H](O)CC[C@]4(C)[C@H]3CC[C@]12C)C(C)C [β-sitosterol (30), β-sitosterol]
- activity at 100 µg/mL (AML12 cell line [3]; [9]): 113 ± 7.6%
- viability at 24 h, 100 μg/mL [4, 10]: 128 ± 9.1%

Compound: CC[C@H](CC[C@@H](C)[C@H]1CC[C@H]2[C@@H]3CCC4=CC(=O)CC[C@]4(C)[C@H]3CC[C@]12C)C(C)C [β-sitosterone (31), β-sitosterone]
- Relative Lipid Droplet Count (%) (AML12 cell line [3]; [8]): 121.5 ± 4.3%
- Cell Viability (%, 24h, DAPI Image) (AML12 cell line [5]): 135.3 ± 7.3%

Compound: plumbocatechin A [plumbocatechin A (22)]
- Relative Lipid Droplet Count (%) (AML12 cell line [3]; [8]): 118.2 ± 3.1%
- Cell Viability (%, 24h, DAPI Image) (AML12 cell line [5]): 147.8 ± 9.6%

Compound: plumbocatechins B [plumbocatechins B (15)]
- Relative Lipid Droplet Count (%) (AML12 cell line [3]; [8]): 105.9 ± 7.8%
- Cell Viability (%, 24h, DAPI Image) (AML12 cell line [5]): 132.5 ± 11.8%
